Experimental data from ChEMBL document CHEMBL1201862, “PubChem BioAssay data set” (2004).
The source made the active and inactive calls.

Key:
Genome polyprotein = Genome polyprotein (dengue virus type 2, UniProt P29990); experiment: flavivirus cap methylation enzyme inhibition – biochemical, confirmation dose response, primary screen (AID 588689); format: functional
[1] = molecular target: FAD-linked sulfhydryl oxidase ALR (Homo sapiens, UniProt P55789); experiment: ALR-catalysed DTT oxidation blockers – biochemical, H2O2 detection, luminescence, cherry-pick, dose response (AID 493248)
FAD-linked sulfhydryl oxidase ALR, sequence (P55789 whole entry): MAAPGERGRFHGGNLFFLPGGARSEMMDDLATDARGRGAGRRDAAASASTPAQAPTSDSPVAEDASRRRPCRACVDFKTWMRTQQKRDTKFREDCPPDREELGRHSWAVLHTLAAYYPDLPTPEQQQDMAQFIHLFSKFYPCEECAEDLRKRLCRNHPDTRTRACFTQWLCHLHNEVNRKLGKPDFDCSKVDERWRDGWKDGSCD

[2] = molecular target: T1, Rac GTPase-activating protein 1 (Homo sapiens, UniProt Q9H0H5); experiment: blockers of MgcRacGAP-driven Rac1 GTP hydrolysis – biochemical, ADP Hunter fluorescence, primary and confirmatory, confirmation (AID 624330); format: functional
T1 sequence (Q9H0H5 whole entry): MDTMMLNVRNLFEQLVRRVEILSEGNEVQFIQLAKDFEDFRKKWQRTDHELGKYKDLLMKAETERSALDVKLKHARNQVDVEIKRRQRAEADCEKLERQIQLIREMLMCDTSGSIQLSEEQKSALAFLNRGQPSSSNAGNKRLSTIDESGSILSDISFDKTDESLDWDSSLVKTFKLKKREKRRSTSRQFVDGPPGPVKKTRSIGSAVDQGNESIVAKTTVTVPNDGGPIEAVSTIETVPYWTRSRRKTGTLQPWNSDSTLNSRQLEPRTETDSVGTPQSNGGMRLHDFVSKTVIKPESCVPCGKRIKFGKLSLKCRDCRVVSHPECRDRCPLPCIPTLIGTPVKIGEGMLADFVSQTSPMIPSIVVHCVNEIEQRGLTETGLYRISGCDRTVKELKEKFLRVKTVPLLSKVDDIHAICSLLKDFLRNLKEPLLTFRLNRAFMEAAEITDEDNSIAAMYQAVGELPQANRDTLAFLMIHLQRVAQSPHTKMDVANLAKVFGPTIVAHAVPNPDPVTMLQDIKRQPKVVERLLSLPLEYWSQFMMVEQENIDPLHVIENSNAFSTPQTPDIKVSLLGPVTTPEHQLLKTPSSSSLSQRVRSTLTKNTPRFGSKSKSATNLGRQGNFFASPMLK

[3] = molecular target: T2, Ubiquitin-conjugating enzyme E2 N (Homo sapiens, UniProt P61088); format: functional;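 further: Dose-response confirmation in a TR-FRET assay detecting UBC13-driven polyubiquitin chain formation, inhibition measured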
T2 sequence (P61088 whole entry): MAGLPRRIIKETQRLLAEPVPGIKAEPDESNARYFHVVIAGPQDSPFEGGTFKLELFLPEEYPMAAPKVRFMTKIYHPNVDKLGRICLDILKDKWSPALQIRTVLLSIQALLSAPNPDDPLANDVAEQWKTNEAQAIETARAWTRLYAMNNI

[4] = Trypanosoma cruzi growth suppression in host cells – NIH3T3 host cells, beta-gal luminescence, confirmation (AID 2044); format: functional, cell-based;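 further: intracellular parasites grown in NIH/3T3 mouse fibroblasts as host cells; luminescent beta-galactosidase reporter signal from transgenic T. cruzi replicating inside host cells; inhibitors lower the luminescence signal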
[5] = NIH3T3 cell viability loss – ATP luminescence, mouse fibroblasts, counter-screen, dose response (AID 2010); format: functional, cell-based;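 further: cells exposed to compound for about 90 hours before reading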
Large T antigen = Large T antigen (Simian virus 40, UniProt P03070); format: functional, Betapolyomavirus macacae;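 further: Confirmatory-stage PubChem screen for compounds that inhibit SV40 T antigen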
Large T antigen, sequence (P03070 whole entry): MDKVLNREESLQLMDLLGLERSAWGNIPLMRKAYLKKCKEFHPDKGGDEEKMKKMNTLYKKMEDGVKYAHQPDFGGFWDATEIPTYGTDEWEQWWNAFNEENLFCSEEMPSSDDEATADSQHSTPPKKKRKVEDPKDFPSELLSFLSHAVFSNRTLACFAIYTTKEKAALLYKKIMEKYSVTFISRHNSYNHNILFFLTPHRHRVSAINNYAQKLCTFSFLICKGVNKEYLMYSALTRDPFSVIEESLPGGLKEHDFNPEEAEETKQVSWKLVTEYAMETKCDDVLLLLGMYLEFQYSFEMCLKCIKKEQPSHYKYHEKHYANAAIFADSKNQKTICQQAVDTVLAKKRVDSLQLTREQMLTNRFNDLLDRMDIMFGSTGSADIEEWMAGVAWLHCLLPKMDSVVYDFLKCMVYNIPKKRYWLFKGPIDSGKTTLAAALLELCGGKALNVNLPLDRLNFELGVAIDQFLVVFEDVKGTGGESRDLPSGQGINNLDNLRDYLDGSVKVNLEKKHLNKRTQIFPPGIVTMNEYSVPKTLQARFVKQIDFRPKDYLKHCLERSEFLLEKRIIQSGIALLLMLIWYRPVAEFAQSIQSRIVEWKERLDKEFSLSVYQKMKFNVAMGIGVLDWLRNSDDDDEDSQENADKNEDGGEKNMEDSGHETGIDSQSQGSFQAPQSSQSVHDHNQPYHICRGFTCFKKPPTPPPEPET

cells = format: functional
[6] = luciferase reporter signal suppression in cells – H4 neuroglioma cells, luminescence, dose response (AID 1990); format: functional, cell-based
[7] = molecular target: T3, RNA-binding protein pos-1 (Caenorhabditis elegans, UniProt G5EF15); experiment: disruptors of C. elegans POS-1 RNA interaction – biochemical, fluorescence polarization, dose response (AID 1964);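 further: purified POS-1 fused to maltose binding protein made in E. coli; potency of compounds blocking POS-1 binding to fluorescent RNA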
T3 sequence (G5EF15 whole entry): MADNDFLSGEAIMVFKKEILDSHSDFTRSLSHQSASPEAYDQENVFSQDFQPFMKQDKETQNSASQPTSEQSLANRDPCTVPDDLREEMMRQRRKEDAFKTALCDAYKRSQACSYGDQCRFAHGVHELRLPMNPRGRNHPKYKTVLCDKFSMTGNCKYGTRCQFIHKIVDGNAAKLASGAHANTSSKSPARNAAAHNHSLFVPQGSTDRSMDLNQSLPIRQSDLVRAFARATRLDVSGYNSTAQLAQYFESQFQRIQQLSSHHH

[8] = Luminescence Cell-Based Dose Response HTS to Identify Inhibitors of 5'UTR Stem-Loop Driven Prion Protein mRNA Translation in H4 Neuroglioblastoma Cells. [Related pubchem assays: 1827 (Project Summary), 1813 (Primary HTS)]; format: functional
[9] = molecular target: T4, Zinc finger protein mex-5 (Caenorhabditis elegans, UniProt Q9XUB2); experiment: potency of MEX-5 RNA-binding blockers – biochemical, C. elegans, fluorescence polarization, dose response (AID 1960)
T4 sequence (Q9XUB2 whole entry): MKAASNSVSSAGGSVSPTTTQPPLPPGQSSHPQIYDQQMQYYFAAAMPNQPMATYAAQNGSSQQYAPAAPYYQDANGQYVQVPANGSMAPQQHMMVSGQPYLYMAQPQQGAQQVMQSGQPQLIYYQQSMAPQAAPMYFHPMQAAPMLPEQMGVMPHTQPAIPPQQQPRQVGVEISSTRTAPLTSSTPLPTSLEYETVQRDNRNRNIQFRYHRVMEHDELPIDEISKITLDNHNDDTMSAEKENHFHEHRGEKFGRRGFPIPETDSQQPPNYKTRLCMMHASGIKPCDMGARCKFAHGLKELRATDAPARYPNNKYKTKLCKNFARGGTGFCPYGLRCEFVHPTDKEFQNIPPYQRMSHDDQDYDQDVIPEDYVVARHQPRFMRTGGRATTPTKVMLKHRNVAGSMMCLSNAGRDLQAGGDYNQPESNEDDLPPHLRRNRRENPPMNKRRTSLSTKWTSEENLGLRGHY

[10] = alpha-synuclein stem-loop luciferase translation blockers – H4 neuroglioma cells, luminescence, confirmation (AID 1988); format: functional, cell-based
[11] = molecular target: T5, Replicative DNA helicase DnaB (Mycobacterium tuberculosis, UniProt P9WMR3); experiment: DnaB intein splicing inhibitors, dose response, biochemical, cell-free fluorescence (AID 449749); format: functional
T5 sequence (P9WMR3 whole entry): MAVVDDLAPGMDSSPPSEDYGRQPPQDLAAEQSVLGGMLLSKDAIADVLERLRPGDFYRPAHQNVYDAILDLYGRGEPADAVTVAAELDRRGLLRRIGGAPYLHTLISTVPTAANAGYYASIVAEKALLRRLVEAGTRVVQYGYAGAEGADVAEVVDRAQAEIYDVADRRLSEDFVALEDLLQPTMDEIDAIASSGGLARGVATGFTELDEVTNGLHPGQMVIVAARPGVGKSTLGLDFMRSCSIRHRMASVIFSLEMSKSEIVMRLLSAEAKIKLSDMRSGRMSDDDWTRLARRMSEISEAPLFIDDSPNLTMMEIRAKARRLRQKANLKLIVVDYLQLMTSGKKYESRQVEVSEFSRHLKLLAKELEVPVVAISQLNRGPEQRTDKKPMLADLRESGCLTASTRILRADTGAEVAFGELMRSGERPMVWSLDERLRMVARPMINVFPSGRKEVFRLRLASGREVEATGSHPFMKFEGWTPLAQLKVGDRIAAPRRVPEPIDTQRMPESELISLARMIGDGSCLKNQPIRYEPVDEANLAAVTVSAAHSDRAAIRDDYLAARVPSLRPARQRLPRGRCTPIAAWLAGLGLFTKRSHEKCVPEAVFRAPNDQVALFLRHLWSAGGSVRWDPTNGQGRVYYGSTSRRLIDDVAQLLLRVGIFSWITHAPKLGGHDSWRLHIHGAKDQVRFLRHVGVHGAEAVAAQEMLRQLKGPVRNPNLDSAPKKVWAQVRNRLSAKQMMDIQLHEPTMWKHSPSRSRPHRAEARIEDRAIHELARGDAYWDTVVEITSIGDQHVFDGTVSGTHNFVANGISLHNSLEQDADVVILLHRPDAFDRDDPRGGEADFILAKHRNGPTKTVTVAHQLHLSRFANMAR

Protein RecA = molecular target: T6, Protein RecA (Mycobacterium tuberculosis, UniProt P9WHJ3); experiment: Fluorescence Cell-Free Homogeneous Dose Retest to Identify Inhibitors of RecA-Intein Splicing Activity. [Related pubchem assays (depositor defined):AID2097, AID2223, AID489010, AID492950]; format: functional
T6 sequence (P9WHJ3 whole entry): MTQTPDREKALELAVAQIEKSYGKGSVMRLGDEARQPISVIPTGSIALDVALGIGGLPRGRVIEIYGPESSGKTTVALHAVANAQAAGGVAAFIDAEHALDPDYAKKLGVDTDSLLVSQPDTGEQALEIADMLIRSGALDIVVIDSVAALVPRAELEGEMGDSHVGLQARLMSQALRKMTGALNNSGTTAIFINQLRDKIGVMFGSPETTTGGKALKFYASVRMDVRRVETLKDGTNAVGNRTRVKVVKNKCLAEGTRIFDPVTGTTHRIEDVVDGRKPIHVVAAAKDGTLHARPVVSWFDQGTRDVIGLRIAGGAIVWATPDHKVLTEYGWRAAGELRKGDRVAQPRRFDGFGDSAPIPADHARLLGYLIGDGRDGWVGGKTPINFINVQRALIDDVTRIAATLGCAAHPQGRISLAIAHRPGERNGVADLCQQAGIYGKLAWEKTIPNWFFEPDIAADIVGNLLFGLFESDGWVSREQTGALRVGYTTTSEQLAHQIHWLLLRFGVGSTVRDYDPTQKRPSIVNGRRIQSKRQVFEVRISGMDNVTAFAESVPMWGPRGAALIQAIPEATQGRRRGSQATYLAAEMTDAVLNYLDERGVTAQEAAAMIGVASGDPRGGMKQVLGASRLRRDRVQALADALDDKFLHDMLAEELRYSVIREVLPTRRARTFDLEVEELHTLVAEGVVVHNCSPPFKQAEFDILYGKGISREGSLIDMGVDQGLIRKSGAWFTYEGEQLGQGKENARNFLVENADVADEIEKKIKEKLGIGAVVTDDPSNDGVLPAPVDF

INS1 = experiment: INS-1E survival protection against cytokine death – cell-based, luminescence, retest, dose response (AID 449756); format: functional; details: Rattus norvegicus;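 further: cell death triggered by IL-1 beta plus TNF-alpha plus IFN-gamma mixture; protective hits raise ATP signal compared with cytokine alone wells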
[12] = molecular target: T7, Polyadenylate-binding protein 1 (Homo sapiens, UniProt P11940); experiment: MLLE binding blockers, Cy5 peptide tracer – biochemical, fluorescence polarization, Cy5-PAM2 peptide, secondary, miRNA deadenylation inhibitor project, dose response (AID 602260); format: functional; details: read-out: IC50_Mean
T7 sequence (P11940 whole entry, the tested form may be a part): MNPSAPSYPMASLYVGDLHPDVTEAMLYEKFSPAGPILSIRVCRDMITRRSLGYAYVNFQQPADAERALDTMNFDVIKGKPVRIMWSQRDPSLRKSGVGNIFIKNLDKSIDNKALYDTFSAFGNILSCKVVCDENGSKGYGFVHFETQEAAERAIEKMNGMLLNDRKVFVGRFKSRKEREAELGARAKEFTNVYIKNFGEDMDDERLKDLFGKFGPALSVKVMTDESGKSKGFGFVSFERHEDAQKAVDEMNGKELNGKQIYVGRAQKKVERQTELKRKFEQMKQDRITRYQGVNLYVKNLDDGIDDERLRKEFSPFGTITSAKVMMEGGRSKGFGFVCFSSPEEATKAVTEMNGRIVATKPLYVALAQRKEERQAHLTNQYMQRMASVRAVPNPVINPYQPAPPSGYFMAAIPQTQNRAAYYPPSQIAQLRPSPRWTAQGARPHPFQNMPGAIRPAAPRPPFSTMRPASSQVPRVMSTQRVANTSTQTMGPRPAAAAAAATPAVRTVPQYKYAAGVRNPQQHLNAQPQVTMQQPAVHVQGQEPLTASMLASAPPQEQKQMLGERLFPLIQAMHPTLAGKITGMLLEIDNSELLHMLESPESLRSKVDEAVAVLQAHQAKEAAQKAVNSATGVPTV

[13] = molecular target: T7, Polyadenylate-binding protein 1; experiment: MLLE domain peptide-binding blockers, IC50 – biochemical, fluorescence polarization, FITC-PAM2 peptide, dose response (AID 602259); format: functional; details: read-out: IC50_Mean

Genome polyprotein, sequence (P29990 2492-3391 limits assumed): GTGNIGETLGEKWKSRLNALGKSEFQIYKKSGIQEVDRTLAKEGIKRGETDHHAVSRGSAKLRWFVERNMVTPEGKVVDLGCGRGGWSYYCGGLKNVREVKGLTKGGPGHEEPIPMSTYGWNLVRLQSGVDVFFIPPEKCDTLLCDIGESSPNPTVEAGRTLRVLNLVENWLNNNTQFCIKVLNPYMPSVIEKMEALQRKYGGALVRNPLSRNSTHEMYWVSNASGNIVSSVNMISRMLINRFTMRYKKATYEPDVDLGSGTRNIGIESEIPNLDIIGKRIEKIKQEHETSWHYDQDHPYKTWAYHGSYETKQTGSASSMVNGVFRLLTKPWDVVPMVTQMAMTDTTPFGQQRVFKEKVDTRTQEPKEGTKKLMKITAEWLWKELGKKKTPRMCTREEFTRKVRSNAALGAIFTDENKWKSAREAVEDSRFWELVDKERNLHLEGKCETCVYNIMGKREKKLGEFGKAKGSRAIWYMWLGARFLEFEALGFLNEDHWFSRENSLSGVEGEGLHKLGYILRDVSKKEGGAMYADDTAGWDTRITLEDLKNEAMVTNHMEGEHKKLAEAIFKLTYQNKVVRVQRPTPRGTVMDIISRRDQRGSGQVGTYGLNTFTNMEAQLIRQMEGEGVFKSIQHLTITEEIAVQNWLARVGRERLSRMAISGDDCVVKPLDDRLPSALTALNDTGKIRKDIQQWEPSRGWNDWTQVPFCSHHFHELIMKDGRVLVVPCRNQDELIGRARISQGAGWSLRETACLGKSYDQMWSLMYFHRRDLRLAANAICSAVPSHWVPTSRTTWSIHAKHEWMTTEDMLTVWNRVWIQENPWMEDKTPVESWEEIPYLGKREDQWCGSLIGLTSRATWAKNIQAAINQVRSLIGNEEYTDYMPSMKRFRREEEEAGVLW

Compound: COc1ccc(/C=C2\C(=O)ON=C2c2ccccc2)cc1OC
- IC50 (Genome polyprotein): 95.4 µM (active)

Compound: CC(=O)Nc1ccc(S(=O)(=O)Nc2ccc(Nc3ccccc3)cc2)cc1
- AC50 [1]: 0.268 µM (active)
- IC50 [2]: 70.1 µM (active)

Compound: O=C(CCCn1c(=S)[nH]c2ccsc2c1=O)NCCc1ccccc1
- IC50 [3]: > 20 µM (inactive)

Compound: O=C(NCC(c1cccnc1)N1CCN(c2ccc(F)cc2)CC1)c1ccco1 (stereo not drawn)
- EC50 [4]: 0.46 µM (active)
- EC50 [5]: > 60 µM (inconclusive)
- AC50 [1]: 4.66 µM (active)

Compound: O=C(Nc1ccccc1N1CCCC1)c1ccc(N2CCCC2=O)cc1
- AC50 [1]: 1.55 µM (active)

Compound: CC1CN(S(=O)(=O)c2cccc(C(=O)N(Cc3nnc(-c4ccccc4Cl)o3)C3CC3)c2)CC(C)O1 (stereo not drawn)
- IC50 [3]: > 20 µM (inactive)

Compound: COc1cc(/C=C2\NC(=S)N(C)C2=O)ccc1O
- IC50 (Large T antigen): 3.22 µM (active)

Compound: CCN(CC)c1ccc(NC(=O)c2cccnc2)cc1
- IC50 (Large T antigen): 13.5 µM (active)
- AC50 [1]: 0.327 µM (active)

Compound: Clc1ccc2nc(N3CCCCC3)[nH]c2c1
- AC50 [1]: 4.04 µM (active)

Compound: COc1cc(/C=N/N(C)C)ccc1OC(=O)c1cccs1
- IC50 (cells): 24.2 µM (active)

Compound: Cc1nnc(N/N=C/c2ccc(Br)cc2)n1N
- IC50 (cells): 2.75 µM (active)

Compound: Cc1cc2c(Nc3ccc(O)cc3)ncnc2s1
- IC50 (Large T antigen): 5.5 µM (active)

Compound: Cc1ccc(C(C2C(=O)CC(C)(C)CC2=O)C2C(=O)CC(C)(C)CC2=O)s1
- IC50 (Genome polyprotein): 46.4 µM (active)

Compound: COc1ccc(C(=O)NN=C(C)/C=C(\O)c2ccccc2)cc1
- IC50 (cells): > 50 µM (active)

Compound: COc1cc(C(=O)Nc2ccc(O)cc2)ccc1OC(C)=O
- IC50 (Large T antigen): 6.12 µM (active)

Compound: CCN(CC)C(=O)CSc1nnc2nnc3cc(OC)ccc3n12
- EC50 [6]: 14.9 µM (active)
- EC50 [7]: 7.7 µM (active)
- EC50 [8]: > 120 µM (not active)
- EC50 [9]: 5.43 µM (active)
- EC50 [10]: 10.8 µM (active)
- AC50 [11]: > 380 µM (inactive)
- EC50 (Protein RecA): 128 µM (active)

Compound: CCc1cc(SC#N)cc(C)c1NC(=O)CCl
- IC50 (Large T antigen): > 100 µM (active)
- AC50 (INS1): 5.76 µM (active)
- IC50 [12]: > 66 µM (inactive)
- IC50 [13]: > 66 µM (inactive)

Compound: O=C(NCc1ccccn1)c1ccc2c(c1)N(Cc1ccccc1)CCS2
- AC50 [1]: 0.511 µM (active)

Compound: O=C(NCC(c1ccco1)N1CCc2ccccc21)c1ccccc1 (stereo not drawn)
- AC50 [1]: 1.21 µM (active)

Compound: Cc1ccc(S(=O)(=O)Nc2nc(C)cc(N/N=C/c3ccc(O)cc3)n2)cc1
- IC50 (Large T antigen): 10.6 µM (active)

Compound: C=CCn1c(SCc2ccc(Cl)cc2)nc2cc(C(=O)N3CCC(C(N)=O)CC3)ccc2c1=O
- IC50 [3]: > 20 µM (inactive)

Compound: CCCc1nc2[nH]c(C)c(NS(=O)(=O)c3ccc(C4CCCCC4)cc3)c(=O)n2n1
- IC50 (Genome polyprotein): 61.1 µM (active)

Compound: O=C(CN1CCOCC1)N/N=C/c1ccc(-c2ccc(Br)cc2)o1
- IC50 (cells): > 50 µM (active)

Compound: CC(=O)Nc1ccc(Nc2nc3ccccc3nc2NS(=O)(=O)c2ccccc2)cc1
- AC50 [1]: 0.13 µM (active)

Compound: Cc1cc(C)cc(OC(=O)CCN2C(=O)c3ccccc3C2=O)c1
- IC50 (cells): > 50 µM (active)
